# Laboratory results reported in US10040781B2, “Tank-binding kinase inhibitor compounds” (Gilead Sciences, Inc., priority 2014, dated 2018).
# What was measured:
# IKKε = IKKε (Homo sapiens (Human), UniProt Q14164); experiment: IKKε TR-FRET enzymatic assay; assay type: biochemical; conditions: read-out: IKKe IC50
# hJAK2 = hJAK2 (Homo sapiens (Human), UniProt O60674); experiment: hJAK2 LANCE TR-FRET enzymatic assay; assay type: biochemical; conditions: read-out: JAK2 IC50
# TBK1 = TBK1 (Homo sapiens (Human), UniProt Q9UHD2); experiment: TBK1 TR-FRET enzymatic assay;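 also: phosphorylation of a biotinylated Ser/Thr peptide by purified full-length recombinant TBK1, read by TR-FRET after 240 min at 25 °C, IC50 is the geometric mean of at least four runs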
# Chain of TBK1 (Q9UHD2 whole entry): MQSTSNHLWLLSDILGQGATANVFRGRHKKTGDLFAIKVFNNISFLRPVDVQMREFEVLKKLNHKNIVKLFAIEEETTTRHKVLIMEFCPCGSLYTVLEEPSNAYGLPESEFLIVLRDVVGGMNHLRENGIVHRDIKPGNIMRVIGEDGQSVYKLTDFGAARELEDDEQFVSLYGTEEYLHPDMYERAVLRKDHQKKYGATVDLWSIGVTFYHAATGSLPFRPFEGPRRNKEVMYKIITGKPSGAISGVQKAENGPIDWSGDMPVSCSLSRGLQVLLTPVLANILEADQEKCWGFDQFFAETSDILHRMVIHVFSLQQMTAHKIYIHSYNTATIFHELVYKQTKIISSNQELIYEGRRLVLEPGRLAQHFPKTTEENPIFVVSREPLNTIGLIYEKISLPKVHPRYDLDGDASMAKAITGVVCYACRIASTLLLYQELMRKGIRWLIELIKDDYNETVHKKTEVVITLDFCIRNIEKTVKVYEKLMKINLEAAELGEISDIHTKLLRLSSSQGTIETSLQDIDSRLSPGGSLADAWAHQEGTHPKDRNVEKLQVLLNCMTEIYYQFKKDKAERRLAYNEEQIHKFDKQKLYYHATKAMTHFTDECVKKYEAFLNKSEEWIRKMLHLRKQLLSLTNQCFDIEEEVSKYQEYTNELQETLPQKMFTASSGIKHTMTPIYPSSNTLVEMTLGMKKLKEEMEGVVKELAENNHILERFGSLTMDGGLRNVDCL
# Chain of IKKε (Q14164 whole entry): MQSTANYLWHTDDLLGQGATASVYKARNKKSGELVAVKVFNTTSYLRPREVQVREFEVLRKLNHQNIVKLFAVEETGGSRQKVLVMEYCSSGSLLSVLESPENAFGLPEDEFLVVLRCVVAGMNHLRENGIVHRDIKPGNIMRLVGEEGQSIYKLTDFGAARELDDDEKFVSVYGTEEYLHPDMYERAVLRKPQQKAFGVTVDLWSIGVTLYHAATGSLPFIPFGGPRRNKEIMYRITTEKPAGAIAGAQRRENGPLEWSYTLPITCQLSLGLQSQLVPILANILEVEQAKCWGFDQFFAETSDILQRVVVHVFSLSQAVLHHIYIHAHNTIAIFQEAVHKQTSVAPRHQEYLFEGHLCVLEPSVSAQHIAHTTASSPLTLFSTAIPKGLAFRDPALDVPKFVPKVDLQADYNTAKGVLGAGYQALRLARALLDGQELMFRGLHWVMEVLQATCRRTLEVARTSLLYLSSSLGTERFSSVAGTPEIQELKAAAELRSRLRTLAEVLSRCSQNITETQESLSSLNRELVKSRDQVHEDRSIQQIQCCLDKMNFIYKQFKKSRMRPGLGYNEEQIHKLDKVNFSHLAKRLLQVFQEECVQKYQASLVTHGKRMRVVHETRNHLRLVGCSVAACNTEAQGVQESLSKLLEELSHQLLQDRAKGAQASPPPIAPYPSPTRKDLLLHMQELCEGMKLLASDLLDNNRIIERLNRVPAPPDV
# Chain of hJAK2 (O60674 whole entry): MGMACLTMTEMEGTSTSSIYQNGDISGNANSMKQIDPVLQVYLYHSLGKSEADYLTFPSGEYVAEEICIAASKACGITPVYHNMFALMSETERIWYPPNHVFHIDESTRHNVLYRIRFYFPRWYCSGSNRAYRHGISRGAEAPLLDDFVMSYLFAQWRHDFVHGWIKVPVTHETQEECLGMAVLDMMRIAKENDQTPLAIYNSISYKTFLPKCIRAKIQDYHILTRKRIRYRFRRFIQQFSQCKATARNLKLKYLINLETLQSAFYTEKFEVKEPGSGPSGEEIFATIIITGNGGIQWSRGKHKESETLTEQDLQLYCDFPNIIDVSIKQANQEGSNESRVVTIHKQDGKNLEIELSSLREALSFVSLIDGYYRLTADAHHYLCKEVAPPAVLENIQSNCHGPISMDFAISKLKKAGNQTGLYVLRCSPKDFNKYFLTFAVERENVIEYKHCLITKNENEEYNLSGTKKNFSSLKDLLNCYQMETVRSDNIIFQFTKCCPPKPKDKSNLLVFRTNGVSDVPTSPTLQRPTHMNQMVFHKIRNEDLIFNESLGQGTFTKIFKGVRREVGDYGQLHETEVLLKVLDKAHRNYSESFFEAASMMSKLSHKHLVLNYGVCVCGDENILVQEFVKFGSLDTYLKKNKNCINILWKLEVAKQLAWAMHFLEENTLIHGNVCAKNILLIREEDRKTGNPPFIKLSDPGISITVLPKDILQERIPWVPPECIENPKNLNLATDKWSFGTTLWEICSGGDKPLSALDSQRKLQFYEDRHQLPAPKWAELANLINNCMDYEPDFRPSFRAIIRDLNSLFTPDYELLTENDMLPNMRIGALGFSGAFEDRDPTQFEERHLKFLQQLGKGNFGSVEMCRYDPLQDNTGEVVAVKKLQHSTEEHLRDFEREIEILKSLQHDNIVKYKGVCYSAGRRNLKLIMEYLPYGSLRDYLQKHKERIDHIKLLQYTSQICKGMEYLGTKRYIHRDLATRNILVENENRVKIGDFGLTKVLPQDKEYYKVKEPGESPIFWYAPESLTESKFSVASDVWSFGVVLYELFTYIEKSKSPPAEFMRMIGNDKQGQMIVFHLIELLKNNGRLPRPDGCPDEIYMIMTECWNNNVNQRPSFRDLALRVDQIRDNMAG
SMILES,IC50 (IKKε) [nM],IC50 (hJAK2) [nM],IC50 (TBK1) [nM]
"Cc1nn(C)c2cc(Nc3ncnc(-c4ccc(O[C@H]5CCN(C(=O)CO)C[C@H]5F)c(C#N)c4)n3)ccc12 [Example 346, 5-(4-((1,3-dimethyl-1H-indazol-6-yl)amino)-1,3,5-triazin-2-yl)-2-(((3R,4S)-3-fluoro-1-(2-hydroxyacetyl)piperidin-4-yl)oxy)benzonitrile]",1,511,3
"Cc1nn(C)c2cc(Nc3ncnc(-c4ccc(O[C@H]5CCN(C(=O)[C@H](C)O)C[C@H]5F)c(C#N)c4)n3)ccc12 [Example 347, 5-(4-((1,3-dimethyl-1H-indazol-6-yl)amino)-1,3,5-triazin-2-yl)-2-(((3R,4S)-3-fluoro-1-((S)-2-hydroxypropanoyl)piperidin-4-yl)oxy)benzonitrile]",5,≥ 1000,4
"N#Cc1cc(-c2ncnc(Nc3ccc(N4CCN(C5COC5)CC4)cc3)n2)ccc1O[C@H]1CCN(C(=O)C(O)CO)C[C@H]1F (stereo partly drawn) [Example 348, 2-(((3R,4S)-1-(2,3-dihydroxypropanoyl)-3-fluoropiperidin-4-yl)oxy)-5-(4-((4-(4-(oxetan-3-yl)piperazin-1-yl)phenyl)amino)-1,3,5-triazin-2-yl)benzonitrile]",3,162,4
"CC(C)n1cc(Nc2ncnc(-c3ccc(O[C@H]4CCN(C(=O)CO)C[C@H]4F)c(C#N)c3)n2)cn1 [Example 349, 2-(((3R,4S)-3-fluoro-1-(2-hydroxyacetyl)piperidin-4-yl)oxy)-5-(4-((1-isopropyl-1H-pyrazol-4-yl)amino)-1,3,5-triazin-2-yl)benzonitrile]",2,98,2
"CCn1cc(Nc2ncnc(-c3ccc(O[C@H]4CCN(C(=O)[C@H](C)O)C[C@H]4F)c(C#N)c3)n2)cn1 [Example 351, 5-(4-((1-ethyl-1H-pyrazol-4-yl)amino)-1,3,5-triazin-2-yl)-2-(((3R,4S)-3-fluoro-1-((S)-2-hydroxypropanoyl)piperidin-4-yl)oxy)benzonitrile]",9,662,6
"C[C@H](O)C(=O)N1CC[C@H](Oc2ccc(-c3ncnc(Nc4cnn(C5CCOCC5)c4)n3)cc2C#N)[C@H](F)C1 [Example 354, 2-(((3R,4S)-3-fluoro-1-((S)-2-hydroxypropanoyl)piperidin-4-yl)oxy)-5-(4-((1-(tetrahydro-2H-pyran-4-yl)-1H-pyrazol-4-yl)amino)-1,3,5-triazin-2-yl)benzonitrile]",5,309,6
"C[C@H](O)C(=O)N1CC[C@H](Oc2ccc(-c3ncnc(Nc4cnc(N5CCN(C6COC6)CC5)c(F)c4)n3)cc2C#N)[C@H](F)C1 [Example 358, 2-(((3R,4S)-3-fluoro-1-((S)-2-hydroxypropanoyl)piperidin-4-yl)oxy)-5-(4-((5-fluoro-6-(4-(oxetan-3-yl)piperazin-1-yl)pyridin-3-yl)amino)-1,3,5-triazin-2-yl)benzonitrile]",11,≥ 1000,6
"C[C@H](O)C(=O)N1CCCC(Oc2ccc(-c3ncnc(Nc4ccc(N5CCN(C6COC6)CC5)cc4)n3)cc2C#N)CC1 (stereo partly drawn) [Example 359, 2-((1-((S)-2-hydroxypropanoyl)azepan-4-yl)oxy)-5-(4-((4-(4-(oxetan-3-yl)piperazin-1-yl)phenyl)amino)-1,3,5-triazin-2-yl)benzonitrile]",37,995,17
"CCn1cc(Nc2ncnc(-c3ccc(O[C@H]4CCN(C(=O)CO)C[C@H]4F)c(C#N)c3)n2)cn1 [Example 360, 5-(4-((1-ethyl-1H-pyrazol-4-yl)amino)-1,3,5-triazin-2-yl)-2-(((3R,4S)-3-fluoro-1-(2-hydroxyacetyl)piperidin-4-yl)oxy)benzonitrile]",2,185,3
"N#Cc1cc(-c2ncnc(Nc3cnn(CC(F)F)c3)n2)ccc1O[C@H]1CCN(C(=O)CO)C[C@H]1F [Example 361, 5-(4-((1-(2,2-difluoroethyl)-1H-pyrazol-4-yl)amino)-1,3,5-triazin-2-yl)-2-(((3R,4S)-3-fluoro-1-(2-hydroxyacetyl)piperidin-4-yl)oxy)benzonitrile]",1,317,2
"C[C@H](O)C(=O)N1CC[C@H](Oc2ccc(-c3ncnc(Nc4ccc(N5CCN(C6COC6)CC5)c(F)c4)n3)cc2C#N)[C@H](F)C1 [Example 367, 2-(((3R,4S)-3-fluoro-1-((S)-2-hydroxypropanoyl)piperidin-4-yl)oxy)-5-(4-((3-fluoro-4-(4-(oxetan-3-yl)piperazin-1-yl)phenyl)amino)-1,3,5-triazin-2-yl)benzonitrile]",2,≥ 1000,3
"N#Cc1cc(-c2ncnc(Nc3ccc(N4CCN(C5COC5)CC4)c(C(F)(F)F)c3)n2)ccc1O[C@H]1CCN(C(=O)CO)C[C@H]1F [Example 368, 2-(((3R,4S)-3-fluoro-1-(2-hydroxyacetyl)piperidin-4-yl)oxy)-5-(4-((4-(4-(oxetan-3-yl)piperazin-1-yl)-3-(trifluoromethyl)phenyl)amino)-1,3,5-triazin-2-yl)benzonitrile]",2,225,3
"C[C@H](O)C(=O)N1CC[C@H](Oc2ccc(-c3ncnc(Nc4ccc(N5CCN(C6COC6)CC5)c(C(F)(F)F)c4)n3)cc2C#N)[C@H](F)C1 [Example 370, 2-(((3R,4S)-3-fluoro-1-((S)-2-hydroxypropanoyl)piperidin-4-yl)oxy)-5-(4-((4-(4-(oxetan-3-yl)piperazin-1-yl)-3-(trifluoromethyl)phenyl)amino)-1,3,5-triazin-2-yl)benzonitrile]",8,875,5
"C[C@H](O)C(=O)N1CC[C@H](Oc2ccc(-c3ncnc(Nc4ccc(N5CCN(C6COC6)CC5)c(C(F)F)c4)n3)cc2C#N)[C@H](F)C1 [Example 371, 5-(4-((3-(difluoromethyl)-4-(4-(oxetan-3-yl)piperazin-1-yl)phenyl)amino)-1,3,5-triazin-2-yl)-2-(((3R,4S)-3-fluoro-1-((S)-2-hydroxypropanoyl)piperidin-4-yl)oxy)benzonitrile]",1,989,2

# Continued by falling IC50 (IKKε), values first:
IC50 (IKKε) [nM],IC50 (hJAK2) [nM],IC50 (TBK1) [nM],SMILES
10,944,7,"C[C@H](O)C(=O)N1CC[C@H](Oc2ccc(-c3ncnc(Nc4cnn(C5COC5)c4)n3)cc2C#N)[C@H](F)C1 [Example 353, 2-(((3R,4S)-3-fluoro-1-((S)-2-hydroxypropanoyl)piperidin-4-yl)oxy)-5-(4-((1-(oxetan-3-yl)-1H-pyrazol-4-yl)amino)-1,3,5-triazin-2-yl)benzonitrile]"
5,231,3,"CC(C)n1cc(Nc2ncnc(-c3ccc(O[C@H]4CCN(C(=O)[C@H](C)O)C[C@H]4F)c(C#N)c3)n2)cn1 [Example 350, 2-(((3R,4S)-3-fluoro-1-((S)-2-hydroxypropanoyl)piperidin-4-yl)oxy)-5-(4-((1-isopropyl-1H-pyrazol-4-yl)amino)-1,3,5-triazin-2-yl)benzonitrile]"
4,≥ 1000,4,"C[C@H](O)C(=O)N1CC[C@H](Oc2ccc(-c3ncnc(Nc4cnn(CC(F)F)c4)n3)cc2C#N)[C@H](F)C1 [Example 352, 5-(4-((1-(2,2-difluoroethyl)-1H-pyrazol-4-yl)amino)-1,3,5-triazin-2-yl)-2-(((3R,4S)-3-fluoro-1-((S)-2-hydroxypropanoyl)piperidin-4-yl)oxy)benzonitrile]"
4,634,5,"C[C@H](O)C(=O)N1CC[C@H](Oc2ccc(-c3ncnc(Nc4ccc(N5CC6(COC6)C5)cc4)n3)cc2C#N)[C@H](F)C1 [Example 364, 5-(4-((4-(2-oxa-6-azaspiro[3.3]heptan-6-yl)phenyl)amino)-1,3,5-triazin-2-yl)-2-(((3R,4S)-3-fluoro-1-((S)-2-hydroxypropanoyl)piperidin-4-yl)oxy)benzonitrile]"
3,550,2,"N#Cc1cc(-c2ncnc(Nc3ccc(N4CCN(C5COC5)CC4)cc3)n2)ccc1O[C@H]1CCN(C(=O)c2cn[nH]c2)C[C@H]1F [Example 356, 2-(((3R,4S)-3-fluoro-1-(1H-pyrazole-4-carbonyl)piperidin-4-yl)oxy)-5-(4-((4-(4-(oxetan-3-yl)piperazin-1-yl)phenyl)amino)-1,3,5-triazin-2-yl)benzonitrile]"
2,511,4,"C[C@H](O)C(=O)N1CC[C@H](Oc2ccc(-c3ncnc(Nc4ccc(N5CCC[C@@H](O)C5)cc4)n3)cc2C#N)[C@H](F)C1 [Example 357, 2-(((3R,4S)-3-fluoro-1-((S)-2-hydroxypropanoyl)piperidin-4-yl)oxy)-5-(4-((4-((R)-3-hydroxypiperidin-1-yl)phenyl)amino)-1,3,5-triazin-2-yl)benzonitrile]"
2,474,4,"C[C@H](O)C(=O)N1CC[C@H](Oc2ccc(-c3ncnc(Nc4ccc(N5CCC6(CC5)COC6)cc4)n3)cc2C#N)[C@H](F)C1 [Example 365, 5-(4-((4-(2-oxa-7-azaspiro[3.5]nonan-7-yl)phenyl)amino)-1,3,5-triazin-2-yl)-2-(((3R,4S)-3-fluoro-1-((S)-2-hydroxypropanoyl)piperidin-4-yl)oxy)benzonitrile]"
1,665,3,"C[C@H](O)C(=O)N1CC[C@H](Oc2ccc(-c3ncnc(Nc4ccc(N5CCCOCC5)cc4)n3)cc2C#N)[C@H](F)C1 [Example 363, 5-(4-((4-(1,4-oxazepan-4-yl)phenyl)amino)-1,3,5-triazin-2-yl)-2-(((3R,4S)-3-fluoro-1-((S)-2-hydroxypropanoyl)piperidin-4-yl)oxy)benzonitrile]"
